{"source": "paper PMC8705986", "about": "“A Novel Angiotensin-I-Converting Enzyme (ACE) Inhibitory Peptide from Takifugu flavidus” (Marine Drugs, 2021)", "key": {"[1]": {"test_system": "spontaneously hypertensive rats (SHRs)", "test": "Antihypertensive effect in SHRs, intravenous, tail-cuff SBP/DBP", "format": "in vivo", "settings": "5 mg/kg intravenous single dose", "description": "Animals were obtained from Vital River Laboratory Animal Technology (Beijing, China), who also performed the blood pressure measurements in spontaneously hypertensive rats (SHRs) with a tail systolic blood pressure (SBP) of over 180 mmHg. Animals were fed a normal diet, and tap water was freely available. SHRs (11 weeks, 240 ± 20 g body weight) were raised at room temperature (25 °C) under a 12 h light/dark cycle. […] Captopril (5 mg/kg) was used as a positive control, and the negative control group was injected with an equal volume of saline. The SBP and DBP of the rats were measured using the tail-cuff method before administration and at 2, 4, 6, 12, and 24 h post-administration, using a BP-98A blood pressure monitor (Softron Biotechnology, Beijing, China) after heating the SHRs at 37 °C for 30 min in a warming chamber. All the rats received humane care conforming to the National Institutes of Health Guide for Care and Use of Laboratory Animals. This study was approved by the Ethics Committee of Guangdong medical laboratory animal center (No. 20211001).\nStatistical analysis was performed using SPSS 19.0 software ([…]). Experimental data are presented as means ± standard deviations (SD) and were statistically evaluated using one-way analysis of variance (ANOVA) with Duncan’s test. Origin 9.0 (OriginLab, Northampton, MA, USA) software was used to process the data."}, "ACE": {"test_system": "ACE", "settings": "cited from earlier work; for ACE-inhibitory activity, in words: shark meat hydrolysates, ref [16] Hao Wu et al.", "from_the_text": "(§1) Marine organisms, which are rich in unique bioactive proteins, have been widely used in the search for ACE-inhibitory peptides. According to previous studies, many novel ACE-inhibitory peptides with efficient antihypertensive effects were obtained from marine organisms. […] Liu et al. investigated the antihypertensive activity of a protein hydrolysate that was made from Rhopilema esc ..."}, "SHRs": {"test_system": "SHRs", "settings": "oral administration in SHRs; ref [17] Lee et al.; cited from earlier work", "from_the_text": "as §1"}, "[2]": {"molecular_target": "T1, angiotensin-I-converting enzyme (ACE, EC 3.4.15.1, from rabbit lung) (rabbit) (UniProt P12822)", "T1 sequence": "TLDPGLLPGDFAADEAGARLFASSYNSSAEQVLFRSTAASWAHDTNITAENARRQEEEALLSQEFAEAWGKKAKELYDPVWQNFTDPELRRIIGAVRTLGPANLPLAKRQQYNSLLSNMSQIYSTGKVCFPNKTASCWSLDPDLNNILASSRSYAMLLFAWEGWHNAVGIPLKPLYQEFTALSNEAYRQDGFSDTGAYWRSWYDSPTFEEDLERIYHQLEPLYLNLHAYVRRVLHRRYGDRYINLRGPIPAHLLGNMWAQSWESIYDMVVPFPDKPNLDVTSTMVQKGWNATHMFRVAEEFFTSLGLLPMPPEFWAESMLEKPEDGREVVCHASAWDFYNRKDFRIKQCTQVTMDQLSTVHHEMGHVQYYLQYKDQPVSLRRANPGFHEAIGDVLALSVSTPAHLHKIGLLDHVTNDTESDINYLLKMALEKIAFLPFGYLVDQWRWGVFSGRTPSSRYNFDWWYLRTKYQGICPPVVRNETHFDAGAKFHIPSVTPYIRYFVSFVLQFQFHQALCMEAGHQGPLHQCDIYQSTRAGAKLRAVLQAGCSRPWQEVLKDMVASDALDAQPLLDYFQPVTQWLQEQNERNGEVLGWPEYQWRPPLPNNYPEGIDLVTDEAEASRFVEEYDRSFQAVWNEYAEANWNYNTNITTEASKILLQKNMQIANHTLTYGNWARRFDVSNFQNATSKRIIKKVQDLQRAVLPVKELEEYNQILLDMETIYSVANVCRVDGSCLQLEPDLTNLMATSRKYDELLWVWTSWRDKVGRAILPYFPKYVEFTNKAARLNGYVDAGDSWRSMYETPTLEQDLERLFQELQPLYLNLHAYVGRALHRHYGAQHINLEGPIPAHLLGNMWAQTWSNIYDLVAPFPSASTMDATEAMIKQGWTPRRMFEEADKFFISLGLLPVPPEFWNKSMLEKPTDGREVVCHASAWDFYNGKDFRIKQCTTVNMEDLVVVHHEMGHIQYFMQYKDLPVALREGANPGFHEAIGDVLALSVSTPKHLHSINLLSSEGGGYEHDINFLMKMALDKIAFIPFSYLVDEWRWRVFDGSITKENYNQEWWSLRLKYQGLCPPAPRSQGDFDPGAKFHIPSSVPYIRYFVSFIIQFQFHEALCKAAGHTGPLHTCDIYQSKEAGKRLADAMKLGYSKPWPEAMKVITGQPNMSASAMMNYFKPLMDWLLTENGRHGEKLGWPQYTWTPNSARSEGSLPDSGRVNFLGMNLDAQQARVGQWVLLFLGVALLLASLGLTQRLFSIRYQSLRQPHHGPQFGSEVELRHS"}, "[3]": {"settings": "ref [14] Ghassem et al., read-out: IC50, ACE-inhibitory peptides from snakehead fish"}}, "note": "Where two headings read alike, the source gives them in different places.", "data": [{"molecule": "C[C@H](CS)C(=O)N1CCC[C@H]1C(=O)O", "note": "[Captopril, captopril]", "values": [{"measurement": "systolic blood pressure (SBP) at 4 h", "setting": "[1]; 4 h, p < 0.05", "value": 151, "unit": "mmHg"}, {"measurement": "systolic blood pressure (SBP) at 24 h", "setting": "[1]; 24 h", "value": 161, "unit": "mmHg"}, {"measurement": "systolic blood pressure (SBP), starting value", "setting": "[1]; value from which SBP fell", "value": 190, "unit": "mmHg"}]}, {"molecule": "Cys-Phe", "values": [{"measurement": "ACE-inhibitory activity, in words", "setting": "ACE", "value": "high ACE-inhibitory activity"}]}, {"molecule": "Glu-Tyr", "values": [{"measurement": "ACE-inhibitory activity, in words", "setting": "ACE", "value": "high ACE-inhibitory activity"}]}, {"molecule": "Gly-Asp-Leu-Gly-Lys-Thr-Thr-Thr-Val-Ser-Asn-Trp-Ser-Pro-Pro-Lys-Try-Lys-Asp-Thr-Pro [PTFP]", "values": [{"measurement": "antihypertensive effect, in words", "setting": "SHRs", "value": "has an antihypertensive effect after oral administration in SHRs"}, {"measurement": "ACE inhibition mode, tuna frame peptide", "setting": "ACE; ref [17] Lee et al.", "value": "non-competitive inhibitor"}, {"measurement": "IC50", "setting": "ACE; ref [17] Lee et al., read-out: IC50, ACE-inhibitory peptide from tuna frame protein", "value": 11300, "unit": "nM"}]}, {"molecule": "LYPPP", "values": [{"measurement": "IC50", "setting": "ACE; [3]", "value": 1300, "unit": "nM"}]}, {"molecule": "Met-Phe", "values": [{"measurement": "ACE-inhibitory activity, in words", "setting": "ACE", "value": "high ACE-inhibitory activity"}]}, {"molecule": "Phe-Glu", "values": [{"measurement": "ACE-inhibitory activity, in words", "setting": "ACE", "value": "high ACE-inhibitory activity"}]}, {"molecule": "YSMYPP", "values": [{"measurement": "IC50", "setting": "ACE; [3]", "value": 2800, "unit": "nM"}]}, {"molecule": "PPLLFAAL", "note": "[PPLLFAAL (Pro-Pro-Leu-Leu-Phe-Ala-Ala-Leu)]", "values": [{"measurement": "ACE-inhibitory activity (hydrolysis of hippuryl-L-histidyl-L-leucine to hippuric acid, RP-HPLC at 220 nm, 37 °C, pH 8.3, 0.3 M NaCl), IC50 of the synthetic peptide", "setting": "[2]", "value": 28, "unit": "μmol·L^−1"}]}]}
